For test [1], the target named is T1, Lanosterol synthase (Homo sapiens) (UniProt P48449).
T1 sequence (whole entry): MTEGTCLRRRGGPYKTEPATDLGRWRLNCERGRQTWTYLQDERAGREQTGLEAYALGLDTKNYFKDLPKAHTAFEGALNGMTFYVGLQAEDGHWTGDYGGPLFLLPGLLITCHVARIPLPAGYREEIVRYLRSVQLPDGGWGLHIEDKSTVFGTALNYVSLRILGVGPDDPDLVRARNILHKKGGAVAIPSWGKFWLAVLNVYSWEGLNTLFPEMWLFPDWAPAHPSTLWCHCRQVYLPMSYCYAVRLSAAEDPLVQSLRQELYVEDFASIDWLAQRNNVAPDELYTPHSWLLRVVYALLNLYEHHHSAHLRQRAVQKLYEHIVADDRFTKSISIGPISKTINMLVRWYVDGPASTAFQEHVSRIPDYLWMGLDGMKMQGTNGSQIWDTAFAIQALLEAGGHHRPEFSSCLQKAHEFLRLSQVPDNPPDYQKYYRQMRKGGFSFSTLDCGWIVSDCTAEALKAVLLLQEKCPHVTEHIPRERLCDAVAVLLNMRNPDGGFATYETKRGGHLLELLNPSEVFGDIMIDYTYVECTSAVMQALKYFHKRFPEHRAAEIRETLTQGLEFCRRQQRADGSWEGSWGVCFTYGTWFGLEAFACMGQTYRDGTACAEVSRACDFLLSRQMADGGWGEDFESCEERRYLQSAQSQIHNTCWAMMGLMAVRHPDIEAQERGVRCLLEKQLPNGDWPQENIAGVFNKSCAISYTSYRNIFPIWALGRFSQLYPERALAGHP
In words: Inhibition of OSC at 20 uM.

The target of the next test is T2, Lanosterol synthase (Homo sapiens, UniProt P48449).
T2 sequence (P48449 whole entry): T1 sequence (whole entry)
The test can be described thus: Inhibition of OSC.

The term inhibition denotes the relative decrease from the control value, in per cent. As a reminder, the IC50 is the concentration that gives 50% inhibition.

In the case of `COc1ccc(-n2c(C)cc(CNCc3ccc(CN(C)C)cc3)c2C)cc1`, the inhibition in test [1] came out at 86%. For the same compound, the IC50 against Lanosterol synthase amounted to 12.7 µM.

For the compound `CN(C)Cc1ccc(CNCc2cnn(-c3ccccc3)n2)cc1`, the inhibition in test [1] was found to be 128%. The compound also yielded an IC50 on Lanosterol synthase of 1.41 µM. In turn, `COc1ccc(-n2c(C)cc(CNC(=O)c3ccc(CN(C)C)cc3)c2C)cc1` showed an IC50 on Lanosterol synthase of 58.8 µM. Regarding `CCCCCCCCCCCC[N+](C)(C)[O-]`, in test [1], the inhibition was found to be 84%. The IC50 against Lanosterol synthase worked out at 2.15 µM. Compound `COc1ccc(-n2c(C)cc(C(=O)NCc3ccc(CN(C)C)cc3)c2C)cc1` displayed an IC50 on Lanosterol synthase of 35.4 µM.

The record behind these values is ChEMBL document CHEMBL1255518, “Novel pyrrole- and 1,2,3-triazole-based 2,3-oxidosqualene cyclase inhibitors” (Bioorg Med Chem Lett, 2010).
